Test results from patent publication US6362170B1, “Benzylglycosylamides as inhibitors of smooth muscle cell proliferation” (American Home Products Corporation, priority 1998, dated 2002).

Tested on: Porcine Smooth Muscle Cell
Experiment: Effects of compounds on cell proliferation using 3H thymidine incorporation
Format: cell-based
Conditions: serum/growth factor stimulated cells; for IC50: 24-36 h incubation, read-out: Porcine Smooth Muscle Cell Antiproliferation IC50
Method: Effects of Compounds on Cell Proliferation Using ^3H Thymidine Incorporation
Human and porcine smooth muscle cells were tested in early passage (generally passage 3-7) at sub-confluent conditions. Cultures were grown in 16 mm (24 well) multi-well culture dishes in medium 199 supplemented with 10% fetal bovine serum and 2% antibiotic/antimycotic. At sub-confluence, the cells were placed in a defined serum free medium (AIM-V; Gibco) for 24-48 h prior to initiating the experimental protocol.
Compounds were added to each well at 50 fold dilution (20 μL/well) and the plates were incubated for 24-36 h at 37° C. in 5% CO2. Compounds were initially dissolved in 50% ethanol and serially diluted into media. Compounds were routinely evaluated at concentrations from 1 to 100 μM. As a control, grade II porcine intestinal mucosal heparin (sodium salt) was routinely evaluated in all cell preparations at concentrations from 0.1 to 100 μg/mL.
At the completion of the test procedure, plates were placed on ice, washed three times with ice cold phosphate buffered saline (PBS) and incubated in ice cold 10% trichloroacetic acid (TCA) got 30 min to remove acid soluble proteins. Solution was transferred to scintillation vials containing 0.4 N HCl (500 μL/vial to neutralize NaOH) and each well was rinsed two times with water (500 μL) for a total volume of 2 mL/vial.
Data was obtained, in triplicate, for both control and experimental samples. Control (100%) data was obtained from maximally stimulated cells, as the result of growth factor or serum stimulation. Experimental data was obtained from cells maximally stimulated with growth factor or serum and treated with compound. Data are provided below in Table 1 as an IC50.

Row | SMILES | IC50 [µM] | Porcine Smooth Muscle Cell Antiproliferation (% at 50 μM)
1 | CC(=O)OCC1OC(NC(=O)c2ccc(Cl)nc2)C(OC(C)=O)C(OC(C)=O)C1OC1OC(COC(C)=O)C(OC(C)=O)C(OC(C)=O)C1OC(C)=O [Example 1, 6-Chloro-N-(Hepta-O-acetyl-β-D-cellobiosyl)-3-pyridinecarboxamide] | 3.55 | 
2 | O=C(NC1OC(CO)C(OC2OC3COC(c4ccccc4)OC3C(O)C2O)C(O)C1O)c1ccc(Cl)nc1 [Example 2, N-(4′,6′-O-benzylidene-β-D-cellobiosyl)-6-chloro-nicotinamide] |  | 40
3 | COc1ccc(C(=O)NC2OC(COC(C)=O)C(OC3OC(COC(C)=O)C(OC(C)=O)C(OC(C)=O)C3OC(C)=O)C(OC(C)=O)C2OC(C)=O)c(OC)n1 (centres unmarked) [Example 4] | 3.11 | 
4 | CC(=O)OCC1OC(NC(=O)c2ccc(F)c(Cl)c2)C(OC(C)=O)C(OC(C)=O)C1OC1OC(COC(C)=O)C(OC(C)=O)C(OC(C)=O)C1OC(C)=O [Example 5, N-(hepta-O-acetyl-β-D-cellobiosyl)-3-chloro-4-fluoro-benzamide] | 11.7 | 
5 | O=C(NC1OC(CO)C(OC2OC3COC(c4ccccc4)OC3C(O)C2O)C(O)C1O)c1ccc(F)cc1Cl [Example 6, N-(4′,6′-O-benzylidene-β-D-cellobiosyl)-2-chloro-4-flouro-benzamide] |  | 5
